The results in this text go back to US20240050442A1, “TRIMEPRAZINE DERIVATIVES AND COMPOSITIONS COMPRISING THE SAME FOR TREATING A NEUROPSYCHIATRIC DISORDER” (CENTRE NATIONAL DE LA RECHERCHE SCIENTIFIQUE, priority 2020, published 2024).

What all share (type): in vivo
Experiment [1] deals with Fmr1-KO mice. In words: Homing behaviour test (social discrimination, cognition). The note with it: 13 post-natal days; for latency time (homing test): 0.175 mg/kg BW intraperitoneal, FIG. 2A. On the procedure: The experiments were performed following the ARRIVE (Animals in Research: Reporting In Vivo Experiments) guidelines. Fmr1-knockout (KO) and WT mice on a C57BL/6J congenic background were obtained from Prof. R. Willemsen. All animals were generated and housed in groups of 4 in standard laboratory conditions (22° C., 55±10% humidity, 12-h light/12-h dark diurnal cycles) with food and water provided ad libitum. Experimental testing was performed between 12:00 and 16:30 each day during the 12-h light period. Only male mice and rats were used. Animal care was conducted in accordance with the European Community Directive 2010/63/EU. The experiments were approved by the local ethics committee (Comité d′Ethique en Expérimentation Animale, by the French Ministry of Research. Trimeprazine and opipramol were purchased from Prestwich Library. Both molecules were diluted in DMSO at the stock concentration of 100 mM. All compounds injected intraperitoneally were administered in a volume of 1.5 ml per kg body weight at the amount indicated in the legends of each figure. Homing Behaviour Test: At PND 13, the litter was separated from the dam and kept for 30 min in a temperature-controlled holding cage. Then, each mouse pup was placed into a Plexiglas box whose floor was covered for ⅓ with bedding from the pup's home cage and for ⅔ with clean bedding. The pup was located at the side of the box covered by clean bedding, and its behaviour was videorecorded for 4 min for subsequent analysis. The following parameters were scored using the Observer 3.0 software (Noldus Information Technology): latency (s) to reach the home-cage bedding area; total time (s) spent by the pup in the nest bedding area.

The subject of experiment [2] is Fmr1-KO mice. In words: Novel object recognition test (working memory). On the procedure:
The experiments were performed following the ARRIVE (Animals in Research: Reporting In Vivo Experiments) guidelines. Fmr1-knockout (KO) and WT mice on a C57BL/6J congenic background were obtained from Prof. R. Willemsen. All animals were generated and housed in groups of 4 in standard laboratory conditions (22° C., 55±10% humidity, 12-h light/12-h dark diurnal cycles) with food and water provided ad libitum. Experimental testing was performed between 12:00 and 16:30 each day during the 12-h light period. Only male mice and rats were used. Animal care was conducted in accordance with the European Community Directive 2010/63/EU. The experiments were approved by the local ethics committee (Comité d′Ethique en Expérimentation Animale, by the French Ministry of Research. Trimeprazine and opipramol were purchased from Prestwich Library. Both molecules were diluted in DMSO at the stock concentration of 100 mM. All compounds injected intraperitoneally were administered in a volume of 1.5 ml per kg body weight at the amount indicated in the legends of each figure. On day 1 and 2, mice were habituated for 10 min to the maze in which the task was performed. On the third day, mice were put back in the maze for 10 min, two identical objects were presented and the time that the mice spent exploring each object was recorded. The mice were again placed in the maze 5 minutes later for 10 min, one of the familiar objects was replaced with a novel object and the total time spent exploring each of the two objects (novel and familiar) was computed. Object exploration was defined as the orientation of the nose to the object at a distance of less than 2 cm. A discrimination index was calculated as the difference between the times spent exploring either the novel or familiar object divided by the total time exploring the two objects. A higher discrimination index is considered to reflect greater memory retention for the familiar object. Pharmacological treatment with SM2 and SM4 was performed 30 minutes before training.

Experiment [3] has as its system Fmr1-KO mice. In words: Social interaction test. The note with it: 28-30 post-natal days, 0.25 mg/kg BW intraperitoneal. How it is done: The experiments were performed following the ARRIVE (Animals in Research: Reporting In Vivo Experiments) guidelines. Fmr1-knockout (KO) and WT mice on a C57BL/6J congenic background were obtained from Prof. R. Willemsen. All animals were generated and housed in groups of 4 in standard laboratory conditions (22° C., 55±10% humidity, 12-h light/12-h dark diurnal cycles) with food and water provided ad libitum. Experimental testing was performed between 12:00 and 16:30 each day during the 12-h light period. Only male mice and rats were used. Animal care was conducted in accordance with the European Community Directive 2010/63/EU. The experiments were approved by the local ethics committee (Comité d'Ethique en Expérimentation Animale, by the French Ministry of Research. Trimeprazine and opipramol were purchased from Prestwich Library. Both molecules were diluted in DMSO at the stock concentration of 100 mM. All compounds injected intraperitoneally were administered in a volume of 1.5 ml per kg body weight at the amount indicated in the legends of each figure. Social Interaction Test: The 28-30-day-old mice were individually habituated to the experimental apparatus (a Plexiglas cage measuring 30×30×30 cm) for 5 min the day before testing. On the test day, the animals were isolated for 2 h before testing, to enhance their social motivation and thus facilitate the expression of social interaction during testing. The test consisted of placing 2 animals (same treatment and weight) into the test cage for 10 min. The behaviour of the animals was recorded using a video camera with zoom lens, DVD recorder and LCD monitor. Behaviour was assessed per single animal and analyzed by a trained observer who was unaware of genotype and treatment conditions using the Observer XT software (Noldus, The Netherlands). The following parameters were scored: a. Social Activities: • 1. Social sniffing: sniffing any part of the body of the partner, including the anogenital area. • 2. Following: moving in the direction of or pursuing the partner, who moves away. • 3. Mutual circle: partners are mutually sniffing each other's anogenital region, while describing tight circles with their reciprocal following movements. • 4. Pushing past: the focal animal passes between the wall of the cage and the body of the partner by pushing its own body through the narrow space available. • 5. Crawling under/over: the focal animal crawls underneath or over the partner's body, crossing it transversely from one side to the other. • 6. Social grooming: chewing and licking the fur of the partner. • 7. Social rest: the focal animal is being groomed by the partner. • 8. […] The average frequency of total social activities, quantified as number of events during the 10 min testing session, was graphed.

Setting [4] is: Fmr1-KO adolescent mice, acute treatment.

With `CC(CN(C)C)CN1c2ccccc2Sc2ccccc21` (centres unmarked) [SM4, Trimeprazine], the “latency time (time the mouse pups need to find the mother's litter)” value with Fmr1-KO mice [1] (Fmr1-KO infant mice, 0.25 mg/kg BW intraperitoneal, FIG. 1A) is on record as “normalized”. Besides, the discrimination index result was “Discrimination index is the same in treated WT and Fmr-KO mice” with Fmr1-KO mice [2] (Fmr1-KO adult mice 8 weeks, 0.3 mg/kg BW intraperitoneal 30 minutes before training, FIG. 3A); “has no impact on the behaviour” in the experiment with Fmr1-KO mice [2] (WT adult mice 8 weeks, 0.3 mg/kg BW intraperitoneal 30 minutes before training, FIG. 3A). The entries for the “number of social interactions” value with Fmr1-KO mice [3] (setting [4]) and in the experiment with Fmr1-KO mice [3] (WT adolescent mice) were “normalized” and “does not modify the social interaction behaviour”, respectively.

`OCCN1CCN(CCCN2c3ccccc3C=Cc3ccccc32)CC1` [SM2, opipramol]: the “latency time (homing test)” value with Fmr1-KO mice [1] (Fmr1-KO infant mice) is “does not have a beneficial impact”; with Fmr1-KO mice [1] (WT infant mice), “has a negative impact”. Further, the discrimination index result in the experiment with Fmr1-KO mice [2] (Fmr1-KO adult mice 8 weeks, 0.18 mg/kg BW intraperitoneal 30 minutes before training, FIG. 3B) is listed as “not normalized”; in the experiment with Fmr1-KO mice [2] (WT adult mice 8 weeks, 0.18 mg/kg BW intraperitoneal 30 minutes before training, FIG. 3B), “worsened the behaviour”. For the same molecule, the “number of social interactions” value is “does not have a beneficial impact” in the experiment with Fmr1-KO mice [3] (setting [4]) and “has a negative impact” in the experiment with Fmr1-KO mice [3] (WT adolescent mice).
